pIC50: −log10 of the molar value. Where two headings read alike, the source gives them in different places.
Biological target: T1, human HDAC6 (Homo sapiens, UniProt Q9UBN7)
T1 construct: Reaction Biology Corporation
T1 sequence (Q9UBN7 1-1215): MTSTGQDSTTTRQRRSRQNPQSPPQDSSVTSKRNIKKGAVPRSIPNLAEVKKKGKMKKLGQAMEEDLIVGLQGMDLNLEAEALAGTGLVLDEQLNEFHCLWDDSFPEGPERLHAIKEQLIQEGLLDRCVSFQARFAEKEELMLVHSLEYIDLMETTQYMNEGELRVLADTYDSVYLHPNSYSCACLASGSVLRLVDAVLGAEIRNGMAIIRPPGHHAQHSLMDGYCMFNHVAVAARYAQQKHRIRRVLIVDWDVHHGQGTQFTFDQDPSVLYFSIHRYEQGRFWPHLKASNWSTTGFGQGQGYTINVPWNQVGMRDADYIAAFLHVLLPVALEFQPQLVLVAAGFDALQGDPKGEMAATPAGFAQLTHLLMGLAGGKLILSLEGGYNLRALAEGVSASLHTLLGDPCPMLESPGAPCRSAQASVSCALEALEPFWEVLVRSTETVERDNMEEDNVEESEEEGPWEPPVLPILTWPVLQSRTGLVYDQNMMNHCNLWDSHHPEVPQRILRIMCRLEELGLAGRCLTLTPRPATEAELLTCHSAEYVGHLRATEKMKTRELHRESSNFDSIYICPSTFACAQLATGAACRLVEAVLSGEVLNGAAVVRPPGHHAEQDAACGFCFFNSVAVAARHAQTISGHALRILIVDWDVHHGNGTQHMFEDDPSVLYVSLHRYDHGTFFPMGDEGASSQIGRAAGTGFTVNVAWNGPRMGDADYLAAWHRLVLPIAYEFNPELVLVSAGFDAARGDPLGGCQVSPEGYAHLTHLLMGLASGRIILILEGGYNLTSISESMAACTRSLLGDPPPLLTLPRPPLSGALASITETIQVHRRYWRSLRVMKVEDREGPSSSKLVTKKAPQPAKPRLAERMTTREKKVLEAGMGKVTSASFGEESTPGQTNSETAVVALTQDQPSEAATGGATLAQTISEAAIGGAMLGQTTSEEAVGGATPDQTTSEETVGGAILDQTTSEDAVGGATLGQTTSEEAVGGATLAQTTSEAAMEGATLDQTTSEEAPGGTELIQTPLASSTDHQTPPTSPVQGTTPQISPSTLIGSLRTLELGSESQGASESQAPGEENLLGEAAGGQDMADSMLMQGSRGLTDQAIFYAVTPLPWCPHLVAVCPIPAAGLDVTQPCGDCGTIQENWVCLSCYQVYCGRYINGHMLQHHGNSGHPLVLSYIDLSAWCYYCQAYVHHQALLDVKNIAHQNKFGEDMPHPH
Assay: HDAC6 inhibition, fluorogenic peptide substrate (Reaction Biology Corporation)
Type: biochemical
Experimental: The compounds of the present invention were tested for inhibition of human HDAC6 at Reaction Biology Corporation by using 50 μM Fluorogenic peptide from p53 residues 379-382 (RHKKAc) as the substrate.

[1] = 50 μM fluorogenic peptide from p53 residues 379-382 (RHKKAc) as substrate, read-out: IC50, HDAC6 inhibition

| Structure (SMILES) | pIC50 [1] | pIC50 |
| --- | --- | --- |
| CN1CCc2c(Cc3ccc(C(=O)NO)cc3)c3ccccc3n2C1 [Example 3, N-hydroxy-4-((2-methyl-1,2,3,4-tetrahydropyrimido[1,6-a]indol-5-yl)methyl)benzamide] | 7.97 |  |
| CN1CCn2c(c(Sc3ccc(C(=O)NO)cc3)c3ccccc32)C1=O [Example 5, N-hydroxy-4-((2-methyl-1-oxo-1,2,3,4-tetrahydropyrazino[1,2-a]indol-10-yl)thio)benzamide] | 8.75 |  |
| CN1CCc2c(C(=O)c3ccc(C(=O)NO)cc3)c3ccccc3n2C1 [Example 4, N-hydroxy-4-(2-methyl-1,2,3,4-tetrahydropyrimido[1,6-a]indole-5-carbonyl)benzamide] |  | 5.83 |
| Cc1ccc2c(c1)c(Sc1ccc(C(=O)NO)cc1)c1n2CN(C)CC1 [Example 2, 4-((2,7-Dimethyl-1,2,3,4-tetrahydropyrimido[1,6-a]indol-5-yl)thio)-N-hydroxybenzamide] | 7.45 |  |
| CN1CCc2c(Sc3ccc(C(=O)NO)cc3)c3ccccc3n2C1 [Example 1, N-Hydroxy-4-((2-methyl-1,2,3,4-tetrahydropyrimido[1,6-a]indol-5-yl)thio)benzamide] | 8.61 |  |

— patent US9345905B2, “Heterocyclic amides compounds which are HDAC6 inhibitors and used as anti-tumoral agents” (Nanjing Allgen Pharma Co. Ltd., priority 2011, dated 2016)
